# Experimental data as given in ChEMBL document CHEMBL1146133, “Synthesis of benz[d]indeno[1,2-b]pyran-5,11-diones: versatile intermediates for the design and synthesis of topoisomerase I inhibitors” (2006).
# What was measured:
# Format in all cases: functional
# [1] = system: SF-268; assay: Antiproliferative activity against human SF268 cell line
# [2] = system: SN12C; assay: Antiproliferative activity against human SN12C cell line
# [3] = system: HCT-116; assay: Antiproliferative activity against human HCT116 cell line
# [4] = system: DU-145; assay: Antiproliferative activity against human DU145 cell line
# [5] = system: HOP-62; assay: Antiproliferative activity against human HOP62 cell line
# [6] = system: OVCAR-3; assay: Antiproliferative activity against human OVCAR-3 cell line
# [7] = system: MDA-MB-435; assay: Antiproliferative activity against human MDA-MB-435 cell line
# [8] = system: UACC-62; assay: Antiproliferative activity against human UACC62 cell line
Compound,GI50 [3] [µM],GI50 [4] [µM],GI50 [6] [µM],GI50 [7] [µM],GI50 [1] [µM],GI50 [2] [µM],GI50 [5] [µM],GI50 [8] [µM]
O=C1c2ccccc2-c2c1c1ccccc1c(=O)n2CCN1CCOCC1,,,,,85.1,,,
O=C1c2ccccc2-c2c1c1ccccc1c(=O)n2CCNCCO,,,,,1.65,,,
COc1cc2c3c(oc(=O)c2cc1OC)-c1ccccc1C3=O,100,100,100,100,100,100,,100
COc1cc2c(=O)oc3c(c2c(OC)c1OC)C(=O)c1ccccc1-3,> 100,> 100,> 100,> 100,> 100,> 100,53.7,> 100
O=C1c2ccccc2-c2c1c1ccc([N+](=O)[O-])cc1c(=O)n2CCCn1ccnc1,,,,,0.016,,,
O=C1c2ccccc2-c2oc(=O)c3cc4c(cc3c21)OCO4,47.9,> 100,> 100,> 100,> 100,> 100,18.2,25.1
O=C1c2ccccc2-c2oc(=O)c3cc([N+](=O)[O-])ccc3c21,> 100,> 100,> 100,> 100,> 100,> 100,> 100,> 100
COc1cc2c3c(n(CCCn4ccnc4)c(=O)c2cc1OC)-c1ccccc1C3=O,,,,,< 0.01,,,
CC[C@@]1(O)C(=O)OCc2c1cc1n(c2=O)Cc2cc3ccccc3nc2-1 [CAMPTOTHECIN],,,,,0.01,,,

# Now from value to compound, other results behind:
GI50 [3] [µM],GI50 [4] [µM],GI50 [6] [µM],GI50 [7] [µM],Compound,GI50 [1] [µM],GI50 [2] [µM],GI50 [5] [µM],GI50 [8] [µM]
< 0.01,2.04,2.63,3.02,CN(C)CCCn1c2c(c3cc4c(cc3c1=O)OCO4)C(=O)c1ccccc1-2,2.69,0.023,< 0.01,0.3
1.41,1.41,1.66,,O=C1c2ccccc2-c2c1c1ccccc1c(=O)n2CCCn1ccnc1,2.34,1.66,2.69,0.79
> 100,61.7,> 100,> 100,O=C1c2ccccc2-c2c1c1ccc([N+](=O)[O-])cc1c(=O)n2CCN1CCOCC1,,58.9,52.5,83.2
60.3,> 100,> 100,> 100,COc1cc2c3c(n(CCN4CCOCC4)c(=O)c2cc1OC)-c1ccccc1C3=O,> 100,> 100,89.1,56.2
6.46,,25.7,> 100,CN(C)CCCn1c2c(c3ccc([N+](=O)[O-])cc3c1=O)C(=O)c1ccccc1-2,,4.17,,7.08
2.45,4.47,5.89,7.08,COc1cc2c3c(n(CCCN(C)C)c(=O)c2cc1OC)-c1ccccc1C3=O,6.17,11,,6.61
